Where two headings read alike, the source gives them in different places.
How the values were obtained:
GST-MCL-1 = GST-MCL-1 (Homo sapiens, UniProt Q07820); test: TR-FRET MCL-1 binding assay (competition with probe F-Bak)
Method in brief: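 Test compounds, 11 three-fold dilutions from 25 μM final, incubated 2 hours at room temperature with GST-MCL-1, F-Bak probe and Tb-anti-GST antibody. TR-FRET read at 340/35 nm excitation with 520/525 and 495/510 nm emission. Run without human serum and with 10% HS.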

[1] = test system: AMO-1 human multiple myeloma tumor cell line; test: AMO-1 cell viability assay (CellTiter-Glo, 24 hours); assay type: cell-based; settings: Homo sapiens, AMO1, 24 h, read-out: AMO-1 Viability IC50 (μM, 10% FBS), 10% FBS, 24 hours of compound treatment
Method: (§1) Each concentration was tested in duplicate at least 3 independent times. A luminescent signal proportional to the number of viable cells following 24 hours of compound treatment was determined using the CellTiter-Glo® Luminescent Cell Viability Assay according to the manufacturer's recommendations (Promega Corp., Madison, WI). The plates were read in a Perkin Elmer Envision using a Luminescence protocol. To generate dose response curves the data is normalized to percent viability by setting the averages of the staurosporine (10 μM) and DMSO only control wells to 0% and 100% viability respectively.

[2] = test system: NCI-H929 human multiple myeloma tumor cell line; test: NCI-H929 cell viability assay (CellTiter-Glo, 24 hours); assay type: cell-based; settings: Homo sapiens, NCI-H929, 24 h, read-out: H929 Viability IC50 (μM, 10% FBS), 10% FBS, 24 hours of compound treatment
Method: as §1

[3] = MCL-1 Binding Ki (nM, 10% HS), in the presence of 10% HS (human serum)
[4] = without HS, read-out: MCL-1 Binding Ki

Chain of GST-MCL-1 (Q07820 whole entry): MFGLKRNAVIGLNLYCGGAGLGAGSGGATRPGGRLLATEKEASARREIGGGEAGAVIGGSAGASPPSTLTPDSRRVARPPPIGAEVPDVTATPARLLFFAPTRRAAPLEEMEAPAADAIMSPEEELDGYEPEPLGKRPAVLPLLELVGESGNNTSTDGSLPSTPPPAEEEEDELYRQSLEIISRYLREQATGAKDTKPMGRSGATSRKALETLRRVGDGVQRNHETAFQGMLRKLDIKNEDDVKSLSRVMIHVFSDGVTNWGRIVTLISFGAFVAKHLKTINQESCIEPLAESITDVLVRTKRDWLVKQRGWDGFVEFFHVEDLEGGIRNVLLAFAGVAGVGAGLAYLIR

Structure (SMILES) | Ki (GST-MCL-1; [3]) [nM] | Ki (GST-MCL-1; [4]) [nM] | IC50 [1] [µM] | IC50 [2] [µM] | Ki (GST-MCL-1; read-out: MCL-1 Binding Ki (nM, 10% HS), in the presence of 10% HS (human serum)) [nM]
Cc1c(Cl)c2c(Cl)c(C)c1-c1c(-c3ccc(F)cc3)sc3ncnc(c13)O[C@@H](C(=O)O)Cc1cc(ccc1OCc1ccnc(-c3ccc(OCC4COCCOCCOCCOCCO4)cc3)n1)OC[C@@H](CN1CCN(C)CC1)O2 (stereo partly drawn) [Example 107, (7R,16R)-19,23-dichloro-1-(4-fluorophenyl)-20,22-dimethyl-16-[(4-methylpiperazin-1-yl)methyl]-10-[(2-{4-[(1,4,7,10,13-pentaoxacyclopentadecan-2-yl)methoxy]phenyl}pyrimidin-4-yl)methoxy]-7,8,15,16-tetrahydro-18,21-etheno-13,9-(metheno)-6,14,17-trioxa-2-thia-3,5-diazacyclononadeca[1,2,3-cd]indene-7-carboxylic Acid] | 0.412 | 0.026 | 0.00147 | 0.000552 | –
CO[C@@H]1CO[C@H]2[C@@H]1OC[C@H]2OCCOCCOC1CCC(c2nccc(COc3ccc4cc3C[C@H](C(=O)O)Oc3ncnc5sc(-c6ccc(F)cc6)c(c35)-c3c(C)c(Cl)c(c(Cl)c3C)O[C@H](CN3CCN(C)CC3)CO4)n2)CC1 (stereo partly drawn) [Example 138, (7R,16R)-19,23-dichloro-1-(4-fluorophenyl)-10-[(2-{(1r,4r)-4-[2-(2-{[(3R,3aR,6R,6aR)-6-methoxyhexahydrofuro[3,2-b]furan-3-yl]oxy}ethoxy)ethoxy]cyclohexyl}pyrimidin-4-yl)methoxy]-20,22-dimethyl-16-[(4-methylpiperazin-1-yl)methyl]-7,8,15,16-tetrahydro-18,21-etheno-13,9-(metheno)-6,14,17-trioxa-2-thia-3,5-diazacyclononadeca[1,2,3-cd]indene-7-carboxylic Acid] | – | 0.007 | 0.002 | 0.00221 | 0.049
Cc1c(Cl)c2c(Cl)c(C)c1-c1c(-c3ccc(F)cc3)sc3ncnc(c13)O[C@@H](C(=O)O)Cc1cc(ccc1OCc1ccnc(N3CCOCCOCCOCCOCCOCC3)n1)OC[C@@H](CN1CCN(C)CC1)O2 [Example 116, (7R,16R)-19,23-dichloro-1-(4-fluorophenyl)-20,22-dimethyl-16-[(4-methylpiperazin-1-yl)methyl]-10-{[2-(1,4,7,10,13-pentaoxa-16-azacyclooctadecan-16-yl)pyrimidin-4-yl]methoxy}-7,8,15,16-tetrahydro-18,21-etheno-13,9-(metheno)-6,14,17-trioxa-2-thia-3,5-diazacyclononadeca[1,2,3-cd]indene-7-carboxylic Acid] | 2.94 | 0.332 | 0.00297 | 0.00798 | –
COCCOCCOCCOCCOCCO[C@H]1CC[C@H](c2nccc(COc3ccc4cc3C[C@H](C(=O)O)Oc3ncnc5sc(-c6ccc(F)cc6)c(c35)-c3c(C)c(Cl)c(c(Cl)c3C)O[C@H](CN3CCN(C)CC3)CO4)n2)CC1 [Example 66, (7R,16R)-19,23-dichloro-1-(4-fluorophenyl)-20,22-dimethyl-16-[(4-methylpiperazin-1-yl)methyl]-10-[(2-{(1r,4r)-4-[(2,5,8,11,14-pentaoxahexadecan-16-yl)oxy]cyclohexyl}pyrimidin-4-yl)methoxy]-7,8,15,16-tetrahydro-18,21-etheno-13,9-(metheno)-6,14,17-trioxa-2-thia-3,5-diazacyclononadeca[1,2,3-cd]indene-7-carboxylic Acid] | 0.119 | 0.015 | 0.000876 | 0.00121 | –
COCCOCCOCCOCCOCCO[C@H]1CC[C@@H](c2nccc(COc3ccc4cc3C[C@H](C(=O)O)Oc3ncnc5sc(-c6ccc(F)cc6)c(c35)-c3c(C)c(Cl)c(c(Cl)c3C)O[C@H](CN3CCN(C)CC3)CO4)n2)CC1 [Example 82, (7R,16R)-19,23-dichloro-1-(4-fluorophenyl)-20,22-dimethyl-16-[(4-methylpiperazin-1-yl)methyl]-10-[(2-{(1s,4s)-4-[(2,5,8,11,14-pentaoxahexadecan-16-yl)oxy]cyclohexyl}pyrimidin-4-yl)methoxy]-7,8,15,16-tetrahydro-18,21-etheno-13,9-(metheno)-6,14,17-trioxa-2-thia-3,5-diazacyclononadeca[1,2,3-cd]indene-7-carboxylic Acid] | 0.135 | 0.014 | 0.000563 | 0.00109 | –
Cc1c(Cl)c2c(Cl)c(C)c1-c1c(-c3ccc(F)cc3)sc3ncnc(c13)O[C@@H](C(=O)O)Cc1cc(ccc1OCc1ccnc(-c3ccc(OC[C@H]4COCCN4C)cc3)n1)OC[C@@H](CN1CCN(C)CC1)O2 [Example 163, (7R,16R)-19,23-dichloro-1-(4-fluorophenyl)-20,22-dimethyl-10-{[2-(4-{[(3R)-4-methylmorpholin-3-yl]methoxy}phenyl)pyrimidin-4-yl]methoxy}-16-[(4-methylpiperazin-1-yl)methyl]-7,8,15,16-tetrahydro-18,21-etheno-9,13-(metheno)-6,14,17-trioxa-2-thia-3,5-diazacyclononadeca[1,2,3-cd]indene-7-carboxylic Acid] | 0.285 | 0.013 | 0.000399 | 0.00134 | –
Cc1c(Cl)c2c(Cl)c(C)c1-c1c(-c3ccc(F)cc3)sc3ncnc(c13)O[C@@H](C(=O)O)Cc1cc(ccc1OCc1ccnc(C(CO)CO)n1)OC[C@@H](CN1CCN(C)CC1)O2 [Example 62, (7R,16R)-19,23-dichloro-10-{[2-(1,3-dihydroxypropan-2-yl)pyrimidin-4-yl]methoxy}-1-(4-fluorophenyl)-20,22-dimethyl-16-[(4-methylpiperazin-1-yl)methyl]-7,8,15,16-tetrahydro-18,21-etheno-9,13-(metheno)-6,14,17-trioxa-2-thia-3,5-diazacyclononadeca[1,2,3-cd]indene-7-carboxylic Acid] | 2.26 | 0.324 | 0.0251 | 0.095 | –
Cc1c(Cl)c2c(Cl)c(C)c1-c1c(-c3ccc(F)cc3)sc3ncnc(c13)O[C@@H](C(=O)O)Cc1cc(ccc1OCc1ccnc(N3C[C@@H]4[C@H](C3)[C@H]4C(=O)O)n1)OC[C@@H](CN1CCN(C)CC1)O2 [Example 36, (7R,16R)-10-({2-[(1R,5S,6r)-6-carboxy-3-azabicyclo[3,1,0]hexan-3-yl]pyrimidin-4-yl}methoxy)-19,23-dichloro-1-(4-fluorophenyl)-20,22-dimethyl-16-[(4-methylpiperazin-1-yl)methyl]-7,8,15,16-tetrahydro-18,21-etheno-13,9-(metheno)-6,14,17-trioxa-2-thia-3,5-diazacyclononadeca[1,2,3-cd]indene-7-carboxylic Acid] | 1.16 | 0.144 | 0.32 | 0.653 | –
COCCOCCOCCOc1ccc(-c2nccc(COc3ccc4cc3C[C@H](C(=O)O)Oc3ncnc5sc(-c6ccc(F)cc6)c(c35)-c3c(C)c(Cl)c(c(Cl)c3C)O[C@H](CN3CCN(C)CC3)CO4)n2)cc1 [Example 16, (7R,16R)-19,23-dichloro-1-(4-fluorophenyl)-10-{[2-(4-{2-[2-(2-methoxyethoxy)ethoxy]ethoxy}phenyl)pyrimidin-4-yl]methoxy}-20,22-dimethyl-16-[(4-methylpiperazin-1-yl)methyl]-7,8,15,16-tetrahydro-18,21-etheno-13,9-(metheno)-6,14,17-trioxa-2-thia-3,5-diazacyclononadeca[1,2,3-cd]indene-7-carboxylic Acid] | 0.359 | 0.028 | 0.000177 | 0.000347 | –
CO[C@H]1O[C@H](COc2ccc(-c3nccc(COc4ccc5cc4C[C@H](C(=O)O)Oc4ncnc6sc(-c7ccc(F)cc7)c(c46)-c4ccc(c(Cl)c4C)O[C@H](CN4CCN(C)CC4)CO5)n3)cc2)[C@@H](OC)[C@H](OC)[C@@H]1OC [Example 14, methyl 6-O-{4-[4-({[(7R,16R,21S)-7-carboxy-19-chloro-1-(4-fluorophenyl)-20-methyl-16-[(4-methylpiperazin-1-yl)methyl]-7,8,15,16-tetrahydro-18,21-etheno-13,9-(metheno)-6,14,17-trioxa-2-thia-3,5-diazacyclononadeca[1,2,3-cd]inden-10-yl]oxy}methyl)pyrimidin-2-yl]phenyl}-2,3,4-tri-O-methyl-a-D-mannopyranoside] | 0.547 | 0.124 | 0.00154 | 0.00258 | –
COCCOCCOCC1CN(c2nccc(COc3ccc4cc3C[C@H](C(=O)O)Oc3ncnc5sc(-c6ccc(F)cc6)c(c35)-c3c(C)c(Cl)c(c(Cl)c3C)O[C@H](CN3CCN(C)CC3)CO4)n2)C1 [Example 139, (7R,16R)-19,23-dichloro-1-(4-fluorophenyl)-10-{[2-(3-{[2-(2-methoxyethoxy)ethoxy]methyl}azetidin-1-yl)pyrimidin-4-yl]methoxy}-20,22-dimethyl-16-[(4-methylpiperazin-1-yl)methyl]-7,8,15,16-tetrahydro-18,21-etheno-9,13-(metheno)-6,14,17-trioxa-2-thia-3,5-diazacyclononadeca[1,2,3-cd]indene-7-carboxylic Acid] | 1.21 | 0.147 | 0.00231 | 0.00307 | –

Reference: patent publication US20250313572A1, “MACROCYCLIC MCL-1 INHIBITORS AND METHODS OF USE” (AbbVie Inc., priority 2017, published 2025)
